Data: article PMC6720452, “Structural Basis for Recruitment of DAPK1 to the KLHL20 E3 Ligase” (Structure(London, England:1993), 2019)

Tests used:
Kelch domain of KEAP1 = conditions: ref Tong et al., 2006; cited from earlier work
Description: However, this is weaker than the low nanomolar binding observed for NRF2 interaction with the Kelch domain of KEAP1 ([Tong et al., 2006]). These differences may reflect the strict regulation of NRF2, which ensures its constitutive degradation, or the requirement for substrate co-adaptors as found for KLHL12 ([McGourty et al., 2016]). Alternatively, t ...

Kelch domain of KLHL20 = biological target: T1, Kelch domain of KLHL20 (Homo sapiens, UniProt Q9Y2M5); test: Surface plasmon resonance, immobilized KLHL20; conditions: SPR, BIACORE S200, CM5 chip, amine coupling, 25°C, HBS-P buffer, 30 μL/min, peptide 1.6-200 μM, one-site steady-state affinity; representative of two independent experiments; N.B., no binding detected
T1 construct: human KLHL20 (Uniprot Q9Y2M5 isoform 1, M303-E605); hexahistidine tag with TEV cleavage site (N); made in house; host or cells: E. coli BL21(DE3)R3-pRARE2
T1 sequence (Q9Y2M5 303-605): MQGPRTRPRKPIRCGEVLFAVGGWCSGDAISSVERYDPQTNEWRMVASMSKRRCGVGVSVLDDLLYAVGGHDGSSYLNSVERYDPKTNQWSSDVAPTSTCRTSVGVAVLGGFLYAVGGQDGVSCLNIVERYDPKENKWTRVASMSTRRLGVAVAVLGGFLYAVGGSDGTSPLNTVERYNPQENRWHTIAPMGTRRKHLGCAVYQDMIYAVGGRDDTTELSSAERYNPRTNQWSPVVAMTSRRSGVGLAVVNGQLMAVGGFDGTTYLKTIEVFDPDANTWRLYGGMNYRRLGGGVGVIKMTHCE
Description: (C) For SPR experiments, KLHL20 and KLHL3 Kelch domains were immobilized by amine coupling on different flow cells of a CM5 sensor chip. Indicated DAPK1 peptides were injected subsequently at concentrations of 1.6 μM, 3.1 μM, 6.2 μM, 12.5 μM, 25 μM, 50 μM, 100 μM, and 200 μM. Binding was monitored at a flow rate of 30 μL/min. […] Data were fitted using a steady-state affinity equation.
Assays were performed at 25°C using a BIACORE S200 (GE Healthcare) surface plasmon resonance (SPR) instrument. The Kelch domains of KLHL20 and KLHL3 were immobilized on sensor chip CM5 (GE Healthcare) using amine coupling. […] Binding was monitored using a flow rate of 30 μL/min. The peptide analytes were prepared in HBS-P buffer (GE Healthcare). Data reported were after reference flow cell signal subtraction. Data were analyzed by one-site steady-state affinity analysis using the Biacore S200 Evaluation software and the fitting equation Req=CRmax/KD+C+RI . (RI, bulk refractive index contribution; Rmax, maximum response; KD, dissociation constant; C, analyte concentration).

KD (μM), Immobilized Protein: KLHL20 (Kelch domain of KLHL20)	Substance	Binding affinity for KEAP1 Kelch domain (Kelch domain of KEAP1)
	NRF2: NRF2, interaction with the Kelch domain of KEAP1	low nanomolar
N.B	SKLRELGRRDAADFLLKA [DAPK1 peptide spanning the C-terminal site residues 1,378–1,395]	
